Source: the supplement of paper PMC10307832

Compound: CCCS(=O)(=O)Nc1ccc(F)c(C(=O)c2c[nH]c3ncc(-c4ccc(Cl)cc4)cc23)c1F [Vemurafenib] + CC(=O)c1c(C)c2cnc(Nc3ccc(N4CCNCC4)cn3)nc2n(C2CCCC2)c1=O [Palbociclib] (partner 0.5 µM)
Assay: relative viability (nuclei count vs DMSO), 5 days (fraction); higher = more cells survive
Conditions: first compound 0.03162 µM
In short: (§1)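 For relative viability, nuclei counts in treated wells were divided by those in vehicle wells. Lung cancer cell lines had been pin-tool dosed in 1536-well plates the day after seeding and cultured for 5 days, then fixed and stained in one step (final 0.05% Triton X-100, 1% formaldehyde, 1 ug/ml Hoechst) and imaged at 4×. Doses were one drug alone or a fixed anchor-drug dose plus five library-drug doses (not always all listed) in √10 steps, and values are duplicate-plate medians.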

Cell Line | relative viability
NCI-H2126 | 0.328
EPLC-272H | 0.34
NCI-H1755 | 0.459
NCI-H2023 | 0.332
NCI-H1650 | 0.314
NCI-H1793 | 0.287
NCI-H2342 | 0.512
H3255 | 0.318
NCI-H1975 | 0.553
PC-14 | 0.449
NCI-H1437 | 0.311
HOP-62 | 0.436
HCC-44 | 0.957
BEN | 0.489
LOU-NH91 | 0.515
NCI-H661 | 0.406
NCI-H1651 | 0.511
SW 1573 | 0.203
LK-2 | 0.621
ABC-1 | 0.744
LCLC-103H | 0.426
NCI-H522 | 0.822
NCI-H358 | 0.113
CAL-12T | 0.408
NCI-H2228 | 0.698
NCI-H650 | 0.359
SW 900 | 0.563

Same assay, conditions: first compound 0.1 µM

Cell Line | relative viability
NCI-H2126 | 0.354
EPLC-272H | 0.3
NCI-H1755 | 0.43
NCI-H2023 | 0.33
NCI-H1650 | 0.255
NCI-H1793 | 0.226
NCI-H2342 | 0.461
NCI-H1975 | 0.471
NCI-H1437 | 0.307
HOP-62 | 0.437
HCC-44 | 0.887
BEN | 0.492
LOU-NH91 | 0.497
NCI-H661 | 0.357
NCI-H1651 | 0.463
SW 1573 | 0.435
LK-2 | 0.599
NCI-H1648 | 0.277
ABC-1 | 0.57
LCLC-103H | 0.448
NCI-H522 | 0.743
NCI-H358 | 0.139
CAL-12T | 0.251
NCI-H2228 | 0.772
NCI-H650 | 0.288
SW 900 | 0.43

Same assay, conditions: first compound 0.3162 µM

Cell Line | relative viability
NCI-H2126 | 0.344
EPLC-272H | 0.413
NCI-H1755 | 0.431
NCI-H2023 | 0.39
NCI-H1650 | 0.356
NCI-H1793 | 0.303
NCI-H2342 | 0.541
H3255 | 0.301
NCI-H1975 | 0.41
PC-14 | 0.504
NCI-H1437 | 0.311
HOP-62 | 0.371
HCC-44 | 0.957
BEN | 0.421
LOU-NH91 | 0.536
NCI-H661 | 0.454
NCI-H1651 | 0.488
PC-3 [JPC-3] | 0.485
SW 1573 | 0.382
LK-2 | 0.602
NCI-H1648 | 0.341
ABC-1 | 0.767
LCLC-103H | 0.501
NCI-H522 | 0.857
NCI-H358 | 0.175
CAL-12T | 0.444
NCI-H2228 | 0.88
NCI-H650 | 0.241
SW 900 | 0.549

Same assay, conditions: first compound 1 µM

Cell Line | relative viability
NCI-H2126 | 0.333
EPLC-272H | 0.353
NCI-H1755 | 0.434
NCI-H2023 | 0.38
NCI-H1650 | 0.351
NCI-H1793 | 0.344
NCI-H2342 | 0.548
H3255 | 0.307
NCI-H1975 | 0.382
PC-14 | 0.537
NCI-H1437 | 0.346
HOP-62 | 0.396
HCC-44 | 0.926
BEN | 0.491
LOU-NH91 | 0.551
NCI-H661 | 0.403
NCI-H1651 | 0.53
PC-3 [JPC-3] | 0.565
SW 1573 | 0.383
LK-2 | 0.311
NCI-H1648 | 0.294
ABC-1 | 0.545
LCLC-103H | 0.467
NCI-H522 | 1.26
NCI-H358 | 0.132
CAL-12T | 0.439
NCI-H2228 | 0.414
NCI-H650 | 0.287
SW 900 | 0.488

Compound: COc1cccc2cc(-c3nc([C@H]4CC[C@H](C(=O)O)CC4)n4ncnc(N)c34)[nH]c12 [OSI-027] + CC1(C)CCC(c2ccc(Cl)cc2)=C(CN2CCN(c3ccc(C(=O)NS(=O)(=O)c4ccc(N[C@H](CCN5CCOCC5)CSc5ccccc5)c(S(=O)(=O)C(F)(F)F)c4)cc3)CC2)C1 [Navitoclax] (partner 0.5 µM)
Assay: as above
Conditions: first compound 0.01 µM
In short: as §1

Cell Line | relative viability
NCI-H2126 | 0.885
EPLC-272H | 1.07
NCI-H1755 | 1.01
NCI-H2023 | 0.982
NCI-H1650 | 1.21
NCI-H1793 | 0.399
H3255 | 0.411
NCI-H1975 | 1.19
PC-14 | 1.02
NCI-H1299 | 1.07
NCI-H1437 | 1.12
HOP-62 | 1.11
HCC-44 | 0.966
BEN | 0.0799
LOU-NH91 | 0.758
NCI-H1651 | 1.07
PC-3 [JPC-3] | 0.822
SW 1573 | 0.889
LK-2 | 0.774
NCI-H1703 | 0.864
Calu-6 | 0.78
CAL-12T | 1.36
EBC-1 | 0.382
NCI-H2228 | 0.978
A549 | 1.16
IA-LM | 0.873
NCI-H596 | 0.888

Same assay, conditions: first compound 0.03162 µM

Cell Line | relative viability
NCI-H2126 | 0.856
EPLC-272H | 0.901
NCI-H1755 | 0.968
NCI-H2023 | 0.99
NCI-H1650 | 1.47
NCI-H1793 | 0.387
H3255 | 0.483
NCI-H1975 | 1.11
PC-14 | 0.998
NCI-H1299 | 1.05
NCI-H1437 | 1.01
HOP-62 | 1.09
HCC-44 | 0.982
BEN | 0.0753
LOU-NH91 | 0.712
PC-3 [JPC-3] | 0.765
SW 1573 | 1.05
LK-2 | 0.781
NCI-H1703 | 1.11
Calu-6 | 0.897
CAL-12T | 1.18
EBC-1 | 0.33
NCI-H2228 | 1.34
A549 | 1.24
IA-LM | 0.572
NCI-H596 | 0.941

Same assay, conditions: first compound 0.1 µM

Cell Line | relative viability
NCI-H2126 | 0.818
EPLC-272H | 1.18
NCI-H1755 | 0.988
NCI-H2023 | 0.964
NCI-H1650 | 1.11
NCI-H1793 | 0.407
H3255 | 0.442
NCI-H1975 | 1.16
PC-14 | 1.05
NCI-H1299 | 1.08
NCI-H1437 | 1.14
HOP-62 | 1.02
HCC-44 | 0.96
BEN | 0.0684
LOU-NH91 | 0.69
NCI-H1651 | 0.935
PC-3 [JPC-3] | 0.772
SW 1573 | 0.902
LK-2 | 0.69
NCI-H1703 | 0.991
Calu-6 | 0.752
CAL-12T | 1.3
EBC-1 | 0.432
NCI-H2228 | 0.81
A549 | 1.01
IA-LM | 0.481
NCI-H596 | 0.933

Same assay, conditions: first compound 0.3162 µM

Cell Line | relative viability
NCI-H2126 | 0.679
EPLC-272H | 0.897
NCI-H1755 | 0.753
NCI-H2023 | 0.708
NCI-H1650 | 1.29
NCI-H1793 | 0.318
H3255 | 0.428
NCI-H1975 | 1.02
PC-14 | 1.05
NCI-H1299 | 1.1
NCI-H1437 | 1
HOP-62 | 1.13
HCC-44 | 0.833
BEN | 0.0639
LOU-NH91 | 0.653
NCI-H1651 | 0.836
PC-3 [JPC-3] | 0.739
SW 1573 | 0.757
LK-2 | 0.372
NCI-H1703 | 0.625
Calu-6 | 0.782
CAL-12T | 1.08
EBC-1 | 0.239
A549 | 0.971
IA-LM | 0.182
NCI-H596 | 0.85

Same assay, conditions: first compound 1 µM

Cell Line | relative viability
NCI-H2126 | 0.801
EPLC-272H | 1.04
NCI-H1755 | 0.279
NCI-H2023 | 0.255
NCI-H1650 | 0.459
NCI-H1793 | 0.223
H3255 | 0.227
NCI-H1975 | 0.508
PC-14 | 0.939
NCI-H1299 | 1
NCI-H1437 | 0.487
HOP-62 | 0.646
HCC-44 | 0.383
BEN | 0.0589
LOU-NH91 | 0.513
NCI-H1651 | 0.341
PC-3 [JPC-3] | 0.547
SW 1573 | 0.504
LK-2 | 0.238
NCI-H1703 | 0.512
Calu-6 | 0.493
CAL-12T | 0.5
EBC-1 | 0.203
NCI-H2228 | 0.303
A549 | 0.319
IA-LM | 0.0688
NCI-H596 | 0.459

Compound: CCCS(=O)(=O)Nc1ccc(F)c(C(=O)c2c[nH]c3ncc(-c4ccc(Cl)cc4)cc23)c1F [Vemurafenib] + Nc1ncn([C@H]2C[C@H](O)[C@@H](CO)O2)c(=O)n1 [Decitabine] (partner 2 µM)
Assay: as above
Conditions: first compound 0.03162 µM
In short: as §1

Cell Line | relative viability
NCI-H2126 | 0.559
EPLC-272H | 0.337
NCI-H1755 | 0.705
NCI-H2023 | 0.228
NCI-H1650 | 0.348
NCI-H1793 | 0.449
NCI-H2342 | 0.705
H3255 | 0.524
NCI-H1975 | 0.419
PC-14 | 0.223
NCI-H1437 | 0.523
HOP-62 | 0.196
HCC-44 | 0.869
